According to article PMC6367362, “MD001, a Novel Peroxisome Proliferator-activated Receptor α/γ Agonist, Improves Glucose and Lipid Metabolism” (Scientific Reports, 2019):

Tests used:
human HA-PPARα = molecular target: T1, human HA-PPARα (Homo sapiens, UniProt Q07869); test: PPRE luciferase activity assay in HEK293 cells transfected with HA-PPARα; format: cell-based; parameters: transcriptional activity of PPARα: dose or concentration left out as unconfirmed; details: HEK293, PPRE-pk-Luc; 24 h (Supplementary Fig. S2)
T1 construct: expressed in transfected cells; host or cells: HEK293
T1 sequence (Q07869 1-468): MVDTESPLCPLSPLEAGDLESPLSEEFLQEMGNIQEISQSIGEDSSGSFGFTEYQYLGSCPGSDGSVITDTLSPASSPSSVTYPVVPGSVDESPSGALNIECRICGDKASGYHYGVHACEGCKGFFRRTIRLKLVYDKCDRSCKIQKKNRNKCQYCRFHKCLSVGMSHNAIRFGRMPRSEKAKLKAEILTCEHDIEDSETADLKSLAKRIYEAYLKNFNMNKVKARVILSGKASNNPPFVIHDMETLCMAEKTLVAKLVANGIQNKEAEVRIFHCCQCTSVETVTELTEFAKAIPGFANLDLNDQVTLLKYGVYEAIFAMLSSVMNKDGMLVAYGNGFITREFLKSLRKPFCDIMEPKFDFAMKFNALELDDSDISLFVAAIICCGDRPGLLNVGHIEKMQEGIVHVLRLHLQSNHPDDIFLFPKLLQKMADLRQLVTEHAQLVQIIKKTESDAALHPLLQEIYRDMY
Protocol: (§1) Figure 2 MD001 induces the expression of target genes through PPARα and PPARγ activation. HEK293 cells were transiently co-transfected with human HA-PPARα (A) and HA-PPARγ (B) expression vectors along with the reporter plasmid (PPRE-pk-Luc) or control reporter plasmid (pk-Luc) with Renilla vector for 24 h. Cells were treated with MD001 (10 μM), rosiglitazone (rosi) (10 μM) or WY14643 (WY) (10 μM) for 24 h. Luciferase activity was normalised to Renilla luciferase activity as described in the Methods section. **, vs. vehicle. (C) HepG2 cells were treated with MD001 (10 μM) for 24 h, and total RNA was isolated and synthesised into cDNA. Relative expression was quantitated using qRT-PCR. **, vs. vehicle. (D,E) HepG2 cells were transfected with control siRNA, PPARα siRNA (D), or PPARγ siRNA (E) for 48 h and treated with vehicle, WY14643 (10 μM), rosiglitazone (10 μM) or MD001 (10 μM) for 24 h. Subsequently, cells were harvested for total RNA isolation. Relative expression of target genes was quantitated using qRT-PCR. ^#, vs. control siRNA; ^‡, vs. control siRNA/vehicle; ^§, vs. control siRNA/WY; * and **, vs. control siRNA/MD001. Data represent the mean ± SD of three independent experiments. *P < 0.05, **P < 0.01, ^#P < 0.01, ^‡P < 0.01, and ^§P < 0.01.
(§2) For transient transfection, cells were transfected with plasmid DNA constructs by polyethylenimine (PEI, Polysciences, Inc., Warrington, PA, USA) according to the manufacturer’s instructions. Transcription activity assays of PPARα and PPARγ in HEK293 cells were performed by co-transfection of HA-PPARα, HA-PPARγ, and peroxisome proliferator-response element (PPRE) reporter plasmid (PPRE-pk-Luc) or control reporter plasmid (pk-Luc) with Renilla vector for 24 h. […] Luciferase activity was measured with the Dual-Luciferase Reporter Assay System (Promega, Madison, WI, USA) and quantified using GloMax (Promega, USA) according to the manufacturer’s protocol. […]
(§3) Luciferase activity was measured as described in the Methods section. […]

human HA-PPARγ = molecular target: T2, human HA-PPARγ (Homo sapiens, UniProt P37231); test: PPRE luciferase activity assay in HEK293 cells transfected with HA-PPARγ; format: cell-based; parameters: transcriptional activity of PPARγ: dose or concentration left out as unconfirmed; details: HEK293, PPRE-pk-Luc; 24 h (Supplementary Fig. S2)
T2 construct: expressed in transfected cells; host or cells: HEK293
T2 sequence (P37231 1-505): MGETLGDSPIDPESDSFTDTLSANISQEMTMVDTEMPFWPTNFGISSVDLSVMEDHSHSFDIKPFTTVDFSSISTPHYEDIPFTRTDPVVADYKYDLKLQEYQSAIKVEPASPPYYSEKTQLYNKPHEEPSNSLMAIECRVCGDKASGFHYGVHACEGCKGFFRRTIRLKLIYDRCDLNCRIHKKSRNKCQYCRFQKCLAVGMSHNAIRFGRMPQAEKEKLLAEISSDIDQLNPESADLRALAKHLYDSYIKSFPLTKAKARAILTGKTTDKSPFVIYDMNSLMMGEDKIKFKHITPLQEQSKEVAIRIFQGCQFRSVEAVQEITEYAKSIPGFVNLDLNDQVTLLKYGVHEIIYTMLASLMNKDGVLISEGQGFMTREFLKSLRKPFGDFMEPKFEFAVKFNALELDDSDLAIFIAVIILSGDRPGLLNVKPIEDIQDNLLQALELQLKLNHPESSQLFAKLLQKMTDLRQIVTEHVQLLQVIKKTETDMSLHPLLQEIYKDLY
Protocol: as §1, §2, §3

wild type C57BL/6J mice = test: Oral once-daily administration to wild type C57BL/6J mice; format: in vivo, mouse; details: wild type C57BL/6J mice
Protocol: Supplementary Figure S6. MD001 has no influence on food intake of mice. (A) Wild type C57/BL6 mice were orally administered with vehicle, rosiglitazone (20 mg/kg), or MD001 (20 mg/kg) once a day for 60 days. The change in their body weight was evaluated and presented as gain of body weight per group (n = 5 - 6 in each group). (B) The 3-day food intake in wild type C57/BL6 mice or db/db mice during the administration of the indicated drug was measured three times (n = 5 - 6 in each group). The data represent the mean ± SD.
C57/BL6 mice. (A-H) Wild type C57/BL6 mice were administered with vehicle, rosiglitazone (20 mg/kg), or MD001 (20 mg/kg) (n = 5 in each group) for 60 days, and their blood metabolites were measured. (B) Blood glucose level was examined during the administration of the […]

db/db mice [1] = details: mouse, in vivo; for H&E staining of skeletal muscle: 20 mg/kg
Protocol: (§4) (A) Changes in blood glucose levels was monitored in db/db mice administered once a day with vehicle, WY14643 (WY, 20 mg/kg), rosiglitazone (rosi, 20 mg/kg), or MD001 (n = 5–6 per group) as indicated. […] (D–M) The change in various blood metabolites was examined in db/db mice administered once a day with vehicle, WY14643 (WY), rosiglitazone (rosi), or MD001 (n = 5–6 per group). *, **, and ^#, vs. vehicle; ^†, vs. vehicle, MD001(5 mg/kg), and MD001(20 mg/kg). The data represent the mean ± S.D. *P < 0.05, **P < 0.01, ^#P < 0.001, and ^†P < 0.01.
(§5) Six-week-old C57BLKS/J-Lepr^db/Lepr^db or wild type C57BL/6J male mice were purchased from Orient Bio, Inc. (Seongnam, Korea) and acclimatised for one week. Mice were randomly grouped and orally administered with vehicle, WY14643 (20 mg/kg), rosiglitazone (20 mg/kg), or MD001 (5 mg/kg or 20 mg/kg) once a day for two months. […] Blood glucose levels were measured at the indicated time point using an OneTouch Ultra Blood Glucose Monitoring System (LifeScan, Inc., Milpitas, CA, USA).
(§6) Livers and blood samples were collected from mice in each group.
(§7) Tissues specimens including liver, perigonadal adipose tissue, skeletal muscle, spleen, kidney, and heart, were collected from mice in each group, fixed in 10% formalin, and embedded into paraffin. Tissue sections (5 μm) were stained with haematoxylin and eosin (H&E).

db/db mice [2] = test: Oral once-daily administration to diabetic db/db mice; details: db/db mice; for number of large fat cells (>150 μm in diameter) / number of small fat cells (<100 μm in diameter): adipose tissue H&E; for blood glucose levels: MD001 5 or 20 mg/kg, WY14643 20 mg/kg, rosiglitazone 20 mg/kg; for diameter of the glomerular capsule: 20 mg/kg once a day for 60 days
Protocol: as §4, §5, §6, §7

transcriptional activity of PPARα (human HA-PPARα) | transcriptional activity of PPARγ (human HA-PPARγ) | melting point | food ingestion (db/db mice [1]) | H&E staining of skeletal muscle (db/db mice [1]) | H&E staining of adipose tissue, skeletal muscle, and liver (wild type C57BL/6J mice; 20 mg/kg once a day for 60 days) | Compound | body weight gain (wild type C57BL/6J mice; once a day for 60 days) | number of large fat cells (>150 μm in diameter) (db/db mice [2]) | number of small fat cells (<100 μm in diameter) (db/db mice [2]) | blood FFA (db/db mice [2]; oral once a day) | blood TG (db/db mice [2]; oral once a day) | blood glucose levels (db/db mice [2]; oral once a day) | diameter of the glomerular capsule (db/db mice [2]) | blood alanine aminotransferase (ALT) levels (db/db mice [2]; oral once a day) | blood aspartate aminotransferase (AST) levels (db/db mice [2]; oral once a day) | hepatic TG (db/db mice [2]; 20 mg/kg) | hepatic steatosis (H&E staining of liver) (db/db mice [2]; 20 mg/kg)
failed to enhance | failed to enhance | 274 to 278 °C | – | – | – | Cc1c(O)cc2oc(=O)c(C(=O)/C=C/c3ccccc3)c(-c3ccccc3)c2c1O [MD002] | – | – | – | – | – | – | – | – | – | – | –
– | – | – | without changes in food ingestion | no differences | – | Cc1cccc(Nc2cc(Cl)nc(SCC(=O)O)n2)c1C [WY14643, reference compound] | no induction of body weight gain | significantly reduced | significantly increased | significantly decreased | significantly decreased | significantly decreased | significantly reduced | – | – | – | –
– | – | – | – | no differences | no differences | CN(CCOc1ccc(CC2SC(=O)NC2=O)cc1)c1ccccn1 (stereo not drawn) [rosiglitazone, reference compound] | – | significantly reduced | significantly increased | significantly decreased | significantly decreased | significantly decreased | significantly reduced | significantly increased | significantly increased | failed to reduce | exacerbated hepatic steatosis
